Test results from PubChem BioAssay AID2060496 (Molecular Pharmacology Branch, DTP, NCI, 2025).
“And” between values parts separate entries of the source, which are not always exact repeats. Equal entries are not always repeated.

Tested on: 276233-004-R-J1-PDC complex spheroid viability
Test: Anticancer human tumor 276233-004-R-J1-PDC patient-derived colon adenocarcinoma cell line growth inhibition [GQUAD]
Conditions: for viability, T/C: stronger effect = lower value
Text: DNA G-quadruplex Stabilizer Agents in Combinations in Complex Spheroids
A high-throughput screen of multi-cell type tumor spheroids was designed to identify active combinations of DNA G-quadruplex stabilizer agents and targeted small molecules. Complex spheroids include a stromal component modeled by human endothelial cells (HUVEC) and fibroblasts modeled by human mesenchymal stem cells (MSCs). The concentration ranges selected for each drug and investigational agent were based upon clinically achievable concentrations if the clinical Cmax of the agent was known.
Compounds. The drugs and investigational agents: pidnarulex (CX-5461; NSC782164), APTO-253 (NSC789042), BRACO-19 (NSC847499), peposertib (NSC802822), ceralasertib (NSC780249), elimusertib (NSC800525), camonsertib (NSC841442), AZD-1390 (NSC803789), olaparib (NSC753686), talazoparib (NSC767125), ART-558 (NSC835418), sotorasib (NSC818433), MRTX-1133 (NSC836407), SN-38 (NSC673596), topotecan (NSC609699), etoposide (NSC141540), doxorubicin (NSC123127), gemcitabine (NSC613327), 5-fluorouracil (NSC19893), paclitaxel (NSC125973), vemurafenib (NSC761431), panobinostat (NSC761190), R-306465 (JNJ-16241199; NSC773264), adavosertib (NSC754352), TP-3654 (NSC805149), carboplatin (NSC241240), KSQ-4279 (NSC840948), and staurosporine (NSC755774) were obtained from the National Cancer Institute (NCI) Developmental Therapeutics Program Chemical Repository (34). The FDA-approved anticancer drug set is available from the NCI Developmental Therapeutics Program. […] The stock solutions were prepared in dimethyl sulfoxide (DMSO, Sigma-Aldrich, St. Louis, MO, cat. D2650) at 800-fold the tested concentration and stored at -70 degrees C prior to their use. All drugs and investigational agents were tested over a range starting from a high concentration at or near the clinical Cmax and decreasing in half-log increments. If the clinical Cmax for an agent had not been determined, the highest concentration tested was 10 microM.
2.3 Cell Culture. All cells were maintained in an incubator at 37 degrees C and 5% CO2 with 95% humidity. The PDC lines were cultured according to standard operating procedures established by the NCI PDMR. All PDCs were thawed and cultured in Matrigel-coated flasks prepared with a working solution of 1X Ham's F-12 nutrient mix, without supplementation (Invitrogen, cat. 11765054), 100 U/mL penicillin-streptomycin (Invitrogen, cat. 15140122), and 2.5% Matrigel (Corning Inc., cat. 354248) for the first three passages. The 857933-349-R-J2-PDC line was cultured in 6C/Colon 1B media, which includes advanced DMEM/F-12 (Thermo Fisher Scientific, cat. 12634028), 10 mM HEPES (Thermo Fisher Scientific, cat. 15630080), 1X GlutaMAX supplement (Thermo Fisher Scientific, cat. 35050061), 0.1 mg/mL primocin (InvivoGen, cat. ant-pm-2), 10% defined fetal bovine serum, heat inactivated (HyClone Laboratories Inc., cat. SH30070.03HI), 50% L-WRN conditioned media (ATCC, cat. CRL-3276), 1.25 mM N-Acetyl-L-cysteine (Sigma-Aldrich, cat. A9165), 10 mM nicotinamide (Sigma-Aldrich, cat. N0636), 1X B-27 supplement (Thermo Fisher Scientific, cat. 17504044), 1X N-2 supplement (Thermo Fisher Scientific, cat. 17502048), 10 microM Y-27632 dihydrochloride (Tocris Bioscience, cat. 1254), and 50 ng/mL human EGF recombinant protein (Thermo Fisher Scientific, cat. PHG0311). The 485176-168-R4-J1-PDC line was cultured in Panc media, which includes all 6C/Colon 1B media components plus 100 ng/mL human FGF-10 (Thermo Fisher Scientific, cat. 100-26), 500 nM SB-431542 (Selleckchem, cat. S1067), and gastrin (Tocris, cat. 3006).
[…]

[1] = curve of first compound, second compound 0.0316 µM
[2] = curve of first compound, second compound 0.1 µM
[3] = curve of first compound, second compound 0.316 µM
[4] = curve of first compound, second compound 1 µM
[5] = curve of first compound, second compound 3.16 µM
[6] = curve of first compound, second compound 10 µM
[7] = second compound 0.0316 µM, first compound 0.0316 µM
[8] = second compound 0.0316 µM, first compound 0.316 µM
[9] = second compound 0.1 µM, first compound 0.0316 µM
[10] = second compound 0.1 µM, first compound 0.316 µM
[11] = second compound 0.316 µM, first compound 0.0316 µM
[12] = second compound 0.316 µM, first compound 0.316 µM
[13] = second compound 1 µM, first compound 0.0316 µM
[14] = second compound 1 µM, first compound 0.316 µM
[15] = second compound 3.16 µM, first compound 0.0316 µM
[16] = second compound 3.16 µM, first compound 0.316 µM
[17] = second compound 10 µM, first compound 0.0316 µM
[18] = second compound 10 µM, first compound 0.316 µM
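Further: spheroids exposed to drugs for seven days.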
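Wherever viability, T/C is given: 100% = DMSO vehicle control viability.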

Compound `CC1COCCN1c1cc(C2(O)CC3CCC(C2)O3)c2cnn(-c3ccn[nH]3)c2n1` (stereo unspecified) + CN(C)c1ccc(Nc2c3ccc(NC(=O)CCN4CCCC4)cc3nc3cc(NC(=O)CCN4CCCC4)ccc23)cc1 has an IC50 [1] of 2.84 µM, an IC50 [2] of 2.41 µM and an IC50 [3] of 0.341 µM. For the same compound, the IC50 [4] was 0.555 µM, the IC50 [5] was 0.0909 µM and the IC50 [6] was 0.0434 µM. It also gave a viability, T/C [7] of 74.7%, a viability, T/C (second compound 0.0316 µM, first compound 0.1 µM) of 80.9% and a viability, T/C [8] of 72.7%. The viability, T/C (second compound 0.0316 µM, first compound 1 µM) was 69%, the viability, T/C (second compound 0.0316 µM, first compound 3.16 µM) was 47.7% and the viability, T/C (second compound 0.0316 µM, first compound 10 µM) was 47.2%. For the same compound, the viability, T/C [9] was 77.4%, the viability, T/C (second compound 0.1 µM, first compound 0.1 µM) was 89.3% and the viability, T/C [10] was 75%. The viability, T/C (second compound 0.1 µM, first compound 1 µM) was 60.8%, the viability, T/C (second compound 0.1 µM, first compound 3.16 µM) was 45.2% and the viability, T/C (second compound 0.1 µM, first compound 10 µM) was 46%. For the same compound, the viability, T/C [11] was 64.9%, the viability, T/C (second compound 0.316 µM, first compound 0.1 µM) was 50.3% and the viability, T/C [12] was 50.4%. It also gave a viability, T/C (second compound 0.316 µM, first compound 1 µM) of 41.9%, a viability, T/C (second compound 0.316 µM, first compound 3.16 µM) of 50.8% and a viability, T/C (second compound 0.316 µM, first compound 10 µM) of 28.8%. For the same compound, the viability, T/C [13] was 55.5%, the viability, T/C (second compound 1 µM, first compound 0.1 µM) was 51.1% and the viability, T/C [14] was 50.1%. The viability, T/C (second compound 1 µM, first compound 1 µM) was 47.2%, the viability, T/C (second compound 1 µM, first compound 3.16 µM) was 43.7% and the viability, T/C (second compound 1 µM, first compound 10 µM) was 27.6%. It also gave a viability, T/C [15] of 57.6%, a viability, T/C (second compound 3.16 µM, first compound 0.1 µM) of 39.4% and a viability, T/C [16] of 52.8%. For the same compound, the viability, T/C (second compound 3.16 µM, first compound 1 µM) was 37.8%, the viability, T/C (second compound 3.16 µM, first compound 3.16 µM) was 39.5% and the viability, T/C (second compound 3.16 µM, first compound 10 µM) was 27.3%. The viability, T/C [17] was 53.5%, the viability, T/C (second compound 10 µM, first compound 0.1 µM) was 42.1% and the viability, T/C [18] was 37.6%. For the same compound, the viability, T/C (second compound 10 µM, first compound 1 µM) was 37.4%, the viability, T/C (second compound 10 µM, first compound 3.16 µM) was 29.3% and the viability, T/C (second compound 10 µM, first compound 10 µM) was 25.4%.

In the case of `CC1COCCN1c1cc(-c2ccnn2C)c2ccnc(-c3ccn[nH]3)c2n1` (stereo unspecified), the viability, T/C (compound 0.0316 µM) is reported as 99.9% and 85.8% and 70.3%, the viability, T/C (compound 0.1 µM) is reported as 85.9% and 83.5% and 72.1% and the viability, T/C (compound 0.316 µM) is reported as 83.8% and 82.2% and 60.7%. For the same compound, the viability, T/C (compound 1 µM) was 68.7% and 82.9% and 70.1%, the viability, T/C (compound 3.16 µM) was 77.7% and 57.3% and 56.7% and the viability, T/C (compound 10 µM) was 58.9% and 53.9% and 47.2%. For the same compound, the IC50 (curve of compound) was > 10 µM and 7.41 µM.

In the case of `Cc1[nH]c2ccccc2c1CCNCc1ccc(/C=C/C(=O)NO)cc1` + Cc1cnc(CNC(=O)c2c(=O)c3ccc(N4CCCN(C)CC4)nc3n3c2sc2ccccc23)cn1, the IC50 [1] is reported as 0.211 µM, the IC50 [2] is reported as 0.144 µM and the IC50 [3] is reported as 0.127 µM. It also gave an IC50 [4] of 0.0624 µM, an IC50 [5] of 0.0469 µM and an IC50 [6] of 0.0405 µM. It also gave a viability, T/C (second compound 0.0316 µM, first compound 0.000999 µM) of 90.4%, a viability, T/C (second compound 0.0316 µM, first compound 0.00316 µM) of 93% and a viability, T/C (second compound 0.0316 µM, first compound 0.00999 µM) of 87.7%. It also gave a viability, T/C [7] of 82.3%, a viability, T/C (second compound 0.0316 µM, first compound 0.0999 µM) of 75.7% and a viability, T/C [8] of 36.6%. It also gave a viability, T/C (second compound 0.1 µM, first compound 0.000999 µM) of 80.1%, a viability, T/C (second compound 0.1 µM, first compound 0.00316 µM) of 74.1% and a viability, T/C (second compound 0.1 µM, first compound 0.00999 µM) of 92.7%. For the same compound, the viability, T/C [9] was 101%, the viability, T/C (second compound 0.1 µM, first compound 0.0999 µM) was 57.8% and the viability, T/C [10] was 33.2%. The viability, T/C (second compound 0.316 µM, first compound 0.000999 µM) was 88%, the viability, T/C (second compound 0.316 µM, first compound 0.00316 µM) was 99.1% and the viability, T/C (second compound 0.316 µM, first compound 0.00999 µM) was 102%. It also gave a viability, T/C [11] of 74.3%, a viability, T/C (second compound 0.316 µM, first compound 0.0999 µM) of 57.9% and a viability, T/C [12] of 29.6%. It also gave a viability, T/C (second compound 1 µM, first compound 0.000999 µM) of 71.5%, a viability, T/C (second compound 1 µM, first compound 0.00316 µM) of 92% and a viability, T/C (second compound 1 µM, first compound 0.00999 µM) of 88.1%. For the same compound, the viability, T/C [13] was 70.9%, the viability, T/C (second compound 1 µM, first compound 0.0999 µM) was 35.2% and the viability, T/C [14] was 19.1%. For the same compound, the viability, T/C (second compound 3.16 µM, first compound 0.000999 µM) was 71.6%, the viability, T/C (second compound 3.16 µM, first compound 0.00316 µM) was 85.8% and the viability, T/C (second compound 3.16 µM, first compound 0.00999 µM) was 68%. For the same compound, the viability, T/C [15] was 62.3%, the viability, T/C (second compound 3.16 µM, first compound 0.0999 µM) was 29.2% and the viability, T/C [16] was 9.8%. It also gave a viability, T/C (second compound 10 µM, first compound 0.000999 µM) of 70.9%, a viability, T/C (second compound 10 µM, first compound 0.00316 µM) of 60.8% and a viability, T/C (second compound 10 µM, first compound 0.00999 µM) of 73.2%. The viability, T/C [17] was 54.7%, the viability, T/C (second compound 10 µM, first compound 0.0999 µM) was 26.4% and the viability, T/C [18] was 4.45%.
